Series [1] concerns the target 5-hydroxytryptamine receptor 2A (Homo sapiens) (UniProt P28223). Put plainly: 5HT2AH_AGON Cerep selectivity data (BI). The following applies: filed as agonist, Compound concentration 20.0 uM.
Series [2] has as its target T1, Mitogen-activated protein kinase 13 (Homo sapiens) (UniProt O15264).
T1 sequence (whole entry): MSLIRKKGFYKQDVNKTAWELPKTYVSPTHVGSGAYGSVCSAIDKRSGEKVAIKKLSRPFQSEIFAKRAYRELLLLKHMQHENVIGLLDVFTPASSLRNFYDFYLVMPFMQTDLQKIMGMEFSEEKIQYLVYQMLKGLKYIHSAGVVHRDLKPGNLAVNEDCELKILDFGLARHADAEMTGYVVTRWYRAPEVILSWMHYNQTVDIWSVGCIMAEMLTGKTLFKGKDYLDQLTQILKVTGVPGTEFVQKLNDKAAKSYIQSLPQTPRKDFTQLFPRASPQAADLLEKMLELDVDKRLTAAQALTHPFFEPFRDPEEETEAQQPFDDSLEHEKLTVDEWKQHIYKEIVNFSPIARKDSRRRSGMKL
Briefly: MAPK13 Invitrogen selectivity data (BI). The following applies: Compound concentration 3.0 uM.

The target of series [3] is Angiotensin-converting enzyme (Homo sapiens) (UniProt P12821). Briefly: ACE(HU) Cerep selectivity data (BI). The following applies: Compound concentration 20.0 uM.
The species named for a further series is Homo sapiens. Put plainly: HIV-1/H Cerep selectivity data (BI). The following applies: Compound concentration 20.0 uM.
The target in series [4] is Glutamate NMDA receptor (Rattus norvegicus) (UniProt P35439+Q00959+Q00960+Q00961+Q62645+Q8VHN2+Q9R1M7). Put plainly: PCP/R Cerep selectivity data (BI). Format: protein-complex assay. The following applies: Compound concentration 20.0 uM.
Series [5] has as its target Tyrosine-protein kinase Blk (Homo sapiens) (UniProt P51451). Put plainly: BLK Invitrogen selectivity data (BI). The following applies: Compound concentration 3.0 uM.
Series [6] has as its target NT-3 growth factor receptor (Homo sapiens) (UniProt Q16288). Put plainly: NTRK3 Invitrogen selectivity data (BI). The following applies: Compound concentration 3.0 uM.
The target of series [7] is Melanocortin receptor 4 (Homo sapiens) (UniProt P32245). Put plainly: MC4/HU Cerep selectivity data (BI). The following applies: Compound concentration 20.0 uM.
Chain of Melanocortin receptor 4 (Homo sapiens) (P32245 whole entry): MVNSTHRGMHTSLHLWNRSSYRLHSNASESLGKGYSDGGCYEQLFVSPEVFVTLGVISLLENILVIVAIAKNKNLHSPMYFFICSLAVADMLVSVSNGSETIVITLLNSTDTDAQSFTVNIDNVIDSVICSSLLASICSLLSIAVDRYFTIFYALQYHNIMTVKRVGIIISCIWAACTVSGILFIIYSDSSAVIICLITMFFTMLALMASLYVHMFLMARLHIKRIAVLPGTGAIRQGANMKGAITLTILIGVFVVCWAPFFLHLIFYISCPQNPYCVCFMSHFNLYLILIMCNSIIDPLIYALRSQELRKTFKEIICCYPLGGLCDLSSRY
The target of series [8] is Macrophage colony-stimulating factor 1 receptor (Homo sapiens) (UniProt P07333). Put plainly: CSF1R Invitrogen selectivity data (BI). The following applies: Compound concentration 3.0 uM.
Chain of Macrophage colony-stimulating factor 1 receptor (Homo sapiens) (P07333 whole entry): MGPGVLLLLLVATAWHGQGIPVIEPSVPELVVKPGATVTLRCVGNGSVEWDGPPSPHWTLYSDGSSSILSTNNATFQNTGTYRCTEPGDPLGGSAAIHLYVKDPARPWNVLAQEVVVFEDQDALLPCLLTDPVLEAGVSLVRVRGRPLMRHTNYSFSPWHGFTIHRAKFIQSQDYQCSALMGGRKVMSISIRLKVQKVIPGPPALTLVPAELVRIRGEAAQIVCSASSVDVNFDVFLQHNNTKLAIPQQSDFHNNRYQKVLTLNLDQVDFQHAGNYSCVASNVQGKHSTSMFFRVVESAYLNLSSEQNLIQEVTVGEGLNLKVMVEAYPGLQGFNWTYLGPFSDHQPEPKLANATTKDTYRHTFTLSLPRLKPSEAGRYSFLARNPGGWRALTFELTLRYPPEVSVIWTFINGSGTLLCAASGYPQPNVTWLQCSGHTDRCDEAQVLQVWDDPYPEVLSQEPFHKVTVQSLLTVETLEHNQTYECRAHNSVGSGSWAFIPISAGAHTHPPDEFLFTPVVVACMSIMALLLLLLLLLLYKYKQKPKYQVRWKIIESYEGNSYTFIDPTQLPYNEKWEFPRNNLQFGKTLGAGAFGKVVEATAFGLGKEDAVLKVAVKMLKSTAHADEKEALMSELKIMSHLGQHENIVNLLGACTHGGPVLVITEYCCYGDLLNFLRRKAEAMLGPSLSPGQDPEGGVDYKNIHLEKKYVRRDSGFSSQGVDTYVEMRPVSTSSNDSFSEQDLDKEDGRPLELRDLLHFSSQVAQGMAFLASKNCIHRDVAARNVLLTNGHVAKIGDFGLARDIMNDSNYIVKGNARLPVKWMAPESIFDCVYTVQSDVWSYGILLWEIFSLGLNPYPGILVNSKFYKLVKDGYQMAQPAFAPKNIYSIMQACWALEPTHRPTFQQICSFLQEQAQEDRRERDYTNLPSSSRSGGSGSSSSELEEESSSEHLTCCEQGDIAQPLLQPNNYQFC
Series [9] has as its target Protein kinase C eta type (Homo sapiens) (UniProt P24723). Briefly: PRKCH Invitrogen selectivity data (BI). The following applies: Compound concentration 3.0 uM.
Series [10] has as its target T2, 5-hydroxytryptamine receptor 3A (Homo sapiens) (UniProt P46098).
T2 sequence (whole entry): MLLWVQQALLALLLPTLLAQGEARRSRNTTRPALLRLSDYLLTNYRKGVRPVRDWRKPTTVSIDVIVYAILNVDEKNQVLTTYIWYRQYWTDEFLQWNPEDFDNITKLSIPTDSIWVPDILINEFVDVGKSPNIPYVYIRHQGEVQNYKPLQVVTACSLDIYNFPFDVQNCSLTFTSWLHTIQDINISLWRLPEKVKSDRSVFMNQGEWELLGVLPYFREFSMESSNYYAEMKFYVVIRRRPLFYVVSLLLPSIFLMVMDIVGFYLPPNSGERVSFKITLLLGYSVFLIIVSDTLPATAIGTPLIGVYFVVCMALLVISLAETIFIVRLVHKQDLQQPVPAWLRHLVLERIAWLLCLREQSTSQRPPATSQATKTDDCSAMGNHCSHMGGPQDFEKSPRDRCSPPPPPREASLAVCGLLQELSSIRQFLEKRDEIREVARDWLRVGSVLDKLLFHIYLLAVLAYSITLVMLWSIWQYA
Put plainly: 5HT3/HU Eurofins-Panlabs selectivity data (BI). The following applies: Compound concentration 10.0 uM.

Series [11] has as its target Glucagon receptor (Homo sapiens) (UniProt P47871). Briefly: GLUCAGONH_AGON Cerep selectivity data (BI). The following applies: filed as agonist, Compound concentration 20.0 uM.
Series [12] concerns the target Motilin receptor (Homo sapiens) (UniProt O43193). Put plainly: MOTILINH_AGON Cerep selectivity data (BI). The following applies: filed as agonist, Compound concentration 20.0 uM.
Series [13] deals with Hepatocyte growth factor receptor (Homo sapiens), P08581 [M1250T]. Put plainly: MET M1250T Invitrogen selectivity data (BI). The following applies: Compound concentration 3.0 uM.
Series [14] concerns the target T3, Tyrosine-protein kinase receptor TYRO3 (Homo sapiens) (UniProt Q06418).
T3 sequence (whole entry): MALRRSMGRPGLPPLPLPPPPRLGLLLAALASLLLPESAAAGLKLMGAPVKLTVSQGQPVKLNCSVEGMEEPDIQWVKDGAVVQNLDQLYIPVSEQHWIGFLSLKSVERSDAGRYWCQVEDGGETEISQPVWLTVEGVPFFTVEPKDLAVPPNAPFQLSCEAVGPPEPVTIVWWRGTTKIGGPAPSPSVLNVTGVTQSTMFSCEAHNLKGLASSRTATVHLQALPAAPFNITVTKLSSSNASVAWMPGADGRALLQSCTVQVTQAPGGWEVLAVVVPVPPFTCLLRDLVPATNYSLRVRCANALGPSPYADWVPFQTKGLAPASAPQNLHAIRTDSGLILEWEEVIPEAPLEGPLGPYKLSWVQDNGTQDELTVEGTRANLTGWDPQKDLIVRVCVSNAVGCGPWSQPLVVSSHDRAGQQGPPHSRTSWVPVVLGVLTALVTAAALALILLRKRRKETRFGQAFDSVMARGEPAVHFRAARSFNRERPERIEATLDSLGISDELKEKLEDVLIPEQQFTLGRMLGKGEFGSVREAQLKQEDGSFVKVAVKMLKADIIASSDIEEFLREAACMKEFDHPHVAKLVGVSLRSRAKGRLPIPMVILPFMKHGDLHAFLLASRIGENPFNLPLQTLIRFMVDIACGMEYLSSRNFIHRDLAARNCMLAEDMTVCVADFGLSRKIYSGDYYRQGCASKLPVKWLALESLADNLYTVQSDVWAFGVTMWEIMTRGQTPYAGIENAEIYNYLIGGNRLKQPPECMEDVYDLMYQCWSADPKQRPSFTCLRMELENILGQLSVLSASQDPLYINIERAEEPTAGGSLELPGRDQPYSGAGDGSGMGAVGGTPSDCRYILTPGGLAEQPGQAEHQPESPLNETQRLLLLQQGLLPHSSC
Put plainly: TYRO3 Invitrogen selectivity data (BI). The following applies: Compound concentration 3.0 uM.

Series [15] has as its target L-type Ca2+ channel (diltiazem site), Cav1.2 alpha-1C (Rattus norvegicus, UniProt P22002). Put plainly: CA+/DILSI/R Cerep selectivity data (BI). The following applies: rat brain, probe [3H]diltiazem, compound concentration 20 uM, read-out: % Ctrl. The arrangement: mode of action inhibitor.

The source of these data is ChEMBL document CHEMBL4507276 (2021).

Structures are written as SMILES.

Chain of Protein kinase C eta type (Homo sapiens) (P24723 whole entry): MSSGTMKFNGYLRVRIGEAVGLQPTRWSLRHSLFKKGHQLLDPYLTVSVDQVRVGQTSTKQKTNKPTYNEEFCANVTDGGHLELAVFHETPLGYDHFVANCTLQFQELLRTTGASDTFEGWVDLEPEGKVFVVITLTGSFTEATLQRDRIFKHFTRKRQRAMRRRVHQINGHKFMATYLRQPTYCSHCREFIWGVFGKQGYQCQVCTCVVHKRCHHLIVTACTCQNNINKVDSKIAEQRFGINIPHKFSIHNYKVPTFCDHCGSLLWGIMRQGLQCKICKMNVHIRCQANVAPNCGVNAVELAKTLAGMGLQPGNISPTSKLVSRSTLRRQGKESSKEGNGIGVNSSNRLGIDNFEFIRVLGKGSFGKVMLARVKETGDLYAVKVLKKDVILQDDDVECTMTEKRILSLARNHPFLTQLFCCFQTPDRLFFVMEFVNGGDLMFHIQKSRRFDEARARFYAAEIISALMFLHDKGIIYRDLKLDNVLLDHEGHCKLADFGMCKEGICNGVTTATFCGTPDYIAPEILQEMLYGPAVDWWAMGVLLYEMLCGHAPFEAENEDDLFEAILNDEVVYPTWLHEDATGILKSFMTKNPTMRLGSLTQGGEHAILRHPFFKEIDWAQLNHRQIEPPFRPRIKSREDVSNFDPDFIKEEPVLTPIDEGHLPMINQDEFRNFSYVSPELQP
Chain of L-type Ca2+ channel (diltiazem site), Cav1.2 alpha-1C (P22002 whole entry): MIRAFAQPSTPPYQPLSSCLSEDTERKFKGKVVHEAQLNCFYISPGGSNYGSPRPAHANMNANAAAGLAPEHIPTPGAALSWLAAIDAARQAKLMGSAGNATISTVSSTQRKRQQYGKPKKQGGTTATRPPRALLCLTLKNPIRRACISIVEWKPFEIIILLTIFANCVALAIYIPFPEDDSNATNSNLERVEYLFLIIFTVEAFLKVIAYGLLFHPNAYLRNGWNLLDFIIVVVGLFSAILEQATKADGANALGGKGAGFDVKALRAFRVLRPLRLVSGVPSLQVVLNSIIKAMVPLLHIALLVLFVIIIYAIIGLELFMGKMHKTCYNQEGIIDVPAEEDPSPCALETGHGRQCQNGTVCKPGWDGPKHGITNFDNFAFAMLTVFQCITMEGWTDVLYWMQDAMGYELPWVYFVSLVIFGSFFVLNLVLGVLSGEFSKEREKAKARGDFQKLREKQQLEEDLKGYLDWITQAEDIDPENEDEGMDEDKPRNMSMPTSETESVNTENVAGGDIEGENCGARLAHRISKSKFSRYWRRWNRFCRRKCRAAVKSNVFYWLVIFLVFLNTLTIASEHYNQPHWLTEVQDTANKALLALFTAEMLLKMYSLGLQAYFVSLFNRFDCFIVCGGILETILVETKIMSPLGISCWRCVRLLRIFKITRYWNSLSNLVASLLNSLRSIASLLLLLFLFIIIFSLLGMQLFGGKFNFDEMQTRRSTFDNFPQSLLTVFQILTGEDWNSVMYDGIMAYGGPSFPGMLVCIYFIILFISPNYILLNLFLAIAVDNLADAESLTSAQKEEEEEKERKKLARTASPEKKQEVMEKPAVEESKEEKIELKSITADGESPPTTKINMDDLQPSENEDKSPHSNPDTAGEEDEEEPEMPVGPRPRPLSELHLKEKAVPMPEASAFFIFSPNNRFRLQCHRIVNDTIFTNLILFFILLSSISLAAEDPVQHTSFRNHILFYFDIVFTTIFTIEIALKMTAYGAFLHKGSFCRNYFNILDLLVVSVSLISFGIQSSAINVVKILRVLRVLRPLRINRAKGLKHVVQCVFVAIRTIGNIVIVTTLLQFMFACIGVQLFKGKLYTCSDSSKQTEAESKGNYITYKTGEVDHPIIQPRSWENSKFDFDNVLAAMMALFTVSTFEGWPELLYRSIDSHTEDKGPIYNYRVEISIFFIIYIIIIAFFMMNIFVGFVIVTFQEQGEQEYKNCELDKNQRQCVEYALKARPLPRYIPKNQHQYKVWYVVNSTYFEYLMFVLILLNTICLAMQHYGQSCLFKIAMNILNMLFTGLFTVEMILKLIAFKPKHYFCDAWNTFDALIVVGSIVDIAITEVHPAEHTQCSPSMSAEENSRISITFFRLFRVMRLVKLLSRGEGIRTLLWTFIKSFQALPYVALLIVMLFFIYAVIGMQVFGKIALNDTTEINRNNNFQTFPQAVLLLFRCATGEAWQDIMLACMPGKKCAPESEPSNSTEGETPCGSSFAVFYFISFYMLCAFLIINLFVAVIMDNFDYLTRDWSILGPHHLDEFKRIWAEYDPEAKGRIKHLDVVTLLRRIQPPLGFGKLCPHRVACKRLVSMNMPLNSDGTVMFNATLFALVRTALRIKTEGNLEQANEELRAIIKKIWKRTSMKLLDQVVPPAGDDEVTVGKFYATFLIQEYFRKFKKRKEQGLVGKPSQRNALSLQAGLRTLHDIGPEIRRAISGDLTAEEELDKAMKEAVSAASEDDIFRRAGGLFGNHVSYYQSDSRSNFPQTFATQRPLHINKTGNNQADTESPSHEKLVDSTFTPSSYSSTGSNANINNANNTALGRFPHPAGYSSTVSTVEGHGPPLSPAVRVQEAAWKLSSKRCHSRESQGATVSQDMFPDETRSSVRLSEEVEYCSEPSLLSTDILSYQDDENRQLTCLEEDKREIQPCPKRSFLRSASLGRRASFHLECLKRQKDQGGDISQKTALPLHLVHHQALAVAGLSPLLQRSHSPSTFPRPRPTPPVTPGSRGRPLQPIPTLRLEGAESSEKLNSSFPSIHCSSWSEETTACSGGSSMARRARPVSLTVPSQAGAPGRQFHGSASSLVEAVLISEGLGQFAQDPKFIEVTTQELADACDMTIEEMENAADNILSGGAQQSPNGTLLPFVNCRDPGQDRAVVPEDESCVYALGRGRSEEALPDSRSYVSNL
Chain of Tyrosine-protein kinase Blk (Homo sapiens) (P51451 2-505 limits assumed): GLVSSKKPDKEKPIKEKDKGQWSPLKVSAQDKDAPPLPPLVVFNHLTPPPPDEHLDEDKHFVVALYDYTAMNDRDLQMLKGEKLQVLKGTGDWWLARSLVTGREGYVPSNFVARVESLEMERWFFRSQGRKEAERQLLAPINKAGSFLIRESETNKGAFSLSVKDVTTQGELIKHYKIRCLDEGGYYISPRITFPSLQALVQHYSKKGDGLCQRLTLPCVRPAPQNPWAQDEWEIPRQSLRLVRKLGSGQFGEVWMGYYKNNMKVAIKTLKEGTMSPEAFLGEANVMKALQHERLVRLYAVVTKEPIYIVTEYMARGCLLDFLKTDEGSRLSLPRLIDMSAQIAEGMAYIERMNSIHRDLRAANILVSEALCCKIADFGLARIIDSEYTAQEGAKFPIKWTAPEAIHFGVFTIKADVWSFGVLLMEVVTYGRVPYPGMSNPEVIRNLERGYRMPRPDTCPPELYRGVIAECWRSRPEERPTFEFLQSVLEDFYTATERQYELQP
Chain of Motilin receptor (Homo sapiens) (O43193 whole entry): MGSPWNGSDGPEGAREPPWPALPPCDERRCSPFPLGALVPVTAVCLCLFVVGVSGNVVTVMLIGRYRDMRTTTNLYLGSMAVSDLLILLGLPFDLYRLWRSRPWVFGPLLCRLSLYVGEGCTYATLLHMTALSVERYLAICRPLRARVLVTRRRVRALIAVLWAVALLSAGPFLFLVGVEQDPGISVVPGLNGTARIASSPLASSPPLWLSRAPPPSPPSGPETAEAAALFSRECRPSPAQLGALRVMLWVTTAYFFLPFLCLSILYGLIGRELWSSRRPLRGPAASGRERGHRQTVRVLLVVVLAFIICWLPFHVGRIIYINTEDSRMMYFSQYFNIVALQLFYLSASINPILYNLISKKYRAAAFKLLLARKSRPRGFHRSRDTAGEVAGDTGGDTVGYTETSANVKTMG

In the case of `CN(C)C(=O)Cn1cc(-c2nc([C@@](C)(c3ccc(-c4cnc(N)nc4)cc3)C3CC3)no2)cn1` [BI 665915], the residual activity is 102% in series [1]; 96.5% in series [2]; 127% in [3]; 100% in the series filed under Homo sapiens; 100% in [4]; 88.5% in [5]. For the same molecule, the residual activity is 93% in series [6]; 109% in [7]; 73% in [8]; 86% in series [9]; 102% in series [10]; 107% in series [11]. In addition, the residual activity was 109% in [12], 105% in series [13] and 96.5% in series [14]. For the same molecule, the activity at 20 µM in series [15] is 119% (not active).
